Legend:
Mouse DNA polymerase ι = biological target: T1, Mouse DNA polymerase ι (Mus musculus, UniProt Q6R3M4); experiment: DNA polymerase activity assay, mouse pol ι; type: biochemical; settings: Y-family pol; read-out: IC50 Value of MK-2, Mouse DNA polymerase ι
T1 construct: made in house
Method: (§1) Pols from mammals, a fish (cherry salmon), an insect (fruit fly) and a plant (cauliflower) were purified, and prokaryotic pols and other DNA metabolic enzymes, such as T7 RNA polymerase, T4 polynucleotide kinase and bovine deoxyribonuclease I, were purchased as described in our previous report. The activities of all pols and other DNA metabolic enzymes were measured as described in previous reports.
(§2) The components of the pol assay were poly(dA)/oligo(dT)18 and dTTP as the DNA template-primer and 2′-deoxyribonucleoside 5′-triphosphate (dNTP) substrate, respectively. VK2, VK3, and their synthesized derivatives (i.e., MK-3, MK-2 and MK-1) were dissolved in dimethyl sulfoxide (DMSO) at various concentrations and sonicated for 30 s. The sonicated samples (4 μL) were mixed with 16 μL of each pol enzyme (final amount, 0.05 units) in 50 mM Tris-HCl (pH 7.5) containing 1 mM dithiothreitol, 50% glycerol and 0.1 mM EDTA, and kept at 0 °C for 10 min. […] Activity without the inhibitor was considered to be 100%, and the activity remaining at each concentration of inhibitor was determined relative to this value. […]

[1] = biological target: T2, Fruit fly DNA polymerase ɛ (Drosophila melanogaster, UniProt Q9VCN1); experiment: DNA polymerase activity assay, fruit fly pol ɛ; type: biochemical; settings: insect pol; read-out: IC50 Value of MK-2, Fruit fly DNA polymerase ɛ
T2 construct: made in house
Method: as §1, §2

T4 DNA polymerase = biological target: T3, T4 DNA polymerase (Enterobacteria phage T4, UniProt P04415); experiment: DNA polymerase activity assay, T4 pol; type: biochemical; settings: prokaryotic pol; read-out: IC50 Value of MK-2, T4 DNA polymerase
T3 construct: purchased
Method: as §1, §2

[2] = biological target: T4, Bovine deoxyribonuclease I (Bos taurus, UniProt P00639); experiment: DNA metabolic enzyme assay, bovine deoxyribonuclease I; type: biochemical; settings: other DNA metabolic enzyme; read-out: IC50 Value of MK-2, Bovine deoxyribonuclease I
T4 construct: purchased
Method: as §1

T4 polynucleotide kinase = biological target: T5, T4 polynucleotide kinase (Enterobacteria phage T4, UniProt P06855); experiment: DNA metabolic enzyme assay, T4 polynucleotide kinase; type: biochemical; settings: other DNA metabolic enzyme; read-out: IC50 Value of MK-2, T4 polynucleotide kinase
T5 construct: purchased
Method: as §1

Human DNA polymerase ɛ = biological target: T6, Human DNA polymerase ɛ (Homo sapiens, UniProt Q07864); experiment: DNA polymerase activity assay, human pol ɛ; type: biochemical; settings: B-family pol; read-out: IC50 Value of MK-2, Human DNA polymerase ɛ
T6 construct: made in house
Method: as §1, §2

Human DNA polymerase η = biological target: T7, Human DNA polymerase η (Homo sapiens, UniProt Q9Y253); experiment: DNA polymerase activity assay, human pol η; type: biochemical; settings: Y-family pol; read-out: IC50 Value of MK-2, Human DNA polymerase η
T7 construct: made in house
Method: as §1, §2

[3] = biological target: Cauliflower DNA polymerase α (Brassica oleracea var. botrytis, UniProt A0A0D3D890); experiment: DNA polymerase activity assay, cauliflower pol α; type: biochemical; settings: plant pol; read-out: IC50 Value of MK-2, Cauliflower DNA polymerase α
Method: as §1, §2

Human DNA polymerase γ [4] = biological target: T8, Human DNA polymerase γ (Homo sapiens, UniProt P54098); experiment: DNA polymerase activity assay, human pol γ; type: biochemical
T8 construct: made in house
T8 sequence (P54098 1-1239): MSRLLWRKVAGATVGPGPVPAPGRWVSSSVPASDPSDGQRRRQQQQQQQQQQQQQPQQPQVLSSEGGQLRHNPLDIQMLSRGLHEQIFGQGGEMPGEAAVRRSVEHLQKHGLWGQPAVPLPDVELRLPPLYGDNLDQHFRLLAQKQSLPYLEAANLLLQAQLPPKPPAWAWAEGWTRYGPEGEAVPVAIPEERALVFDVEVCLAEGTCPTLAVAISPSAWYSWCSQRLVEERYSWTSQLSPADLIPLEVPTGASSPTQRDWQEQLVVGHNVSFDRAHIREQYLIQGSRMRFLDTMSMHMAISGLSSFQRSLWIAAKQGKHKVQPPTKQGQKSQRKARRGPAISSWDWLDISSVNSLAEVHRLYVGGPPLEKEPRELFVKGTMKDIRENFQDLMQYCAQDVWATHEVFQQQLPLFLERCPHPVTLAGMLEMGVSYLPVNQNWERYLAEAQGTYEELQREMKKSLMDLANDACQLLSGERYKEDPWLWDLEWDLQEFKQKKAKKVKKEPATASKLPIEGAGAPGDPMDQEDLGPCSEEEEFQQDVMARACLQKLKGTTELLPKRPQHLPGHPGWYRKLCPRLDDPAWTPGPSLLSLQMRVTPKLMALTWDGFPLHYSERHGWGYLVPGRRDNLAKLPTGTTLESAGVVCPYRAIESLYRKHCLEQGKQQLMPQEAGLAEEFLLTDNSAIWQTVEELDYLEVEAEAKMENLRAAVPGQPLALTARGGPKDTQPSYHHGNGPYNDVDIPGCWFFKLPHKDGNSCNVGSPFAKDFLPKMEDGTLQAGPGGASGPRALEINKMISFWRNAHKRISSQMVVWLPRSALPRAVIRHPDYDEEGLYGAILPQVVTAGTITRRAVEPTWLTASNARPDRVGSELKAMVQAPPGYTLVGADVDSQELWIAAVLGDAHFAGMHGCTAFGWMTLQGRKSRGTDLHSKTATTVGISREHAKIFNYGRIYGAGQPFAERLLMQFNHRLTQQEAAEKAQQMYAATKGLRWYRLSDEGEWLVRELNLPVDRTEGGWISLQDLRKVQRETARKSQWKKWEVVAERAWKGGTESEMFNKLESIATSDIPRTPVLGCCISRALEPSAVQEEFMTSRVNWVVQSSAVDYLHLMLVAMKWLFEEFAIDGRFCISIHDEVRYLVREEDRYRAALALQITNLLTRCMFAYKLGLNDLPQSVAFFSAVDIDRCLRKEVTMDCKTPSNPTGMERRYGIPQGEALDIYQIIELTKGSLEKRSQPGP
Method: as §1
The components of the pol assay were poly(dA)/oligo(dT)18 and dTTP as the DNA template-primer and 2′-deoxyribonucleoside 5′-triphosphate (dNTP) substrate, respectively. VK2, VK3, and their synthesized derivatives (i.e., MK-3, MK-2 and MK-1) were dissolved in dimethyl sulfoxide (DMSO) at various concentrations and sonicated for 30 s. The sonicated samples (4 μL) were mixed with 16 μL of each pol enzyme (final amount, 0.05 units) in 50 mM Tris-HCl (pH 7.5) containing 1 mM dithiothreitol, 50% glycerol and 0.1 mM EDTA, and kept at 0 °C for 10 min. These inhibitor–enzyme mixtures (8 μL) were added to 16 μL of each standard enzyme reaction mixture (50 mM Tris-HCl [pH 7.5], 1 mM dithiothreitol, 1 mM MgCl2, 15% glycerol, 10 μM poly(dA)/oligo(dT)18 and 10 μM [^3H]-dTTP), and incubation was carried out at 37 °C for 60 min, except for Taq pol, which was incubated at 74 °C for 60 min. Activity without the inhibitor was considered to be 100%, and the activity remaining at each concentration of inhibitor was determined relative to this value. One unit of pol activity was defined as the amount of enzyme that catalyzed the incorporation of 1 nmol dNTP (dTTP) into the synthetic DNA template-primer (poly(dA)/oligo(dT)18, A/T = 2/1) in 60 min at 37 °C under normal reaction conditions for each enzyme (scintillation counts: approximately 1 pmol of incorporated radioactive nucleotides = 100 cpm).

Human DNA polymerase γ [5] = biological target: T8, Human DNA polymerase γ; set-up: method as in PMID 18312466, PMID 18698499, PMID 20030669, PMID 20881898; settings: earlier work of the authors; cited from earlier work

T1 sequence (Q6R3M4 whole entry): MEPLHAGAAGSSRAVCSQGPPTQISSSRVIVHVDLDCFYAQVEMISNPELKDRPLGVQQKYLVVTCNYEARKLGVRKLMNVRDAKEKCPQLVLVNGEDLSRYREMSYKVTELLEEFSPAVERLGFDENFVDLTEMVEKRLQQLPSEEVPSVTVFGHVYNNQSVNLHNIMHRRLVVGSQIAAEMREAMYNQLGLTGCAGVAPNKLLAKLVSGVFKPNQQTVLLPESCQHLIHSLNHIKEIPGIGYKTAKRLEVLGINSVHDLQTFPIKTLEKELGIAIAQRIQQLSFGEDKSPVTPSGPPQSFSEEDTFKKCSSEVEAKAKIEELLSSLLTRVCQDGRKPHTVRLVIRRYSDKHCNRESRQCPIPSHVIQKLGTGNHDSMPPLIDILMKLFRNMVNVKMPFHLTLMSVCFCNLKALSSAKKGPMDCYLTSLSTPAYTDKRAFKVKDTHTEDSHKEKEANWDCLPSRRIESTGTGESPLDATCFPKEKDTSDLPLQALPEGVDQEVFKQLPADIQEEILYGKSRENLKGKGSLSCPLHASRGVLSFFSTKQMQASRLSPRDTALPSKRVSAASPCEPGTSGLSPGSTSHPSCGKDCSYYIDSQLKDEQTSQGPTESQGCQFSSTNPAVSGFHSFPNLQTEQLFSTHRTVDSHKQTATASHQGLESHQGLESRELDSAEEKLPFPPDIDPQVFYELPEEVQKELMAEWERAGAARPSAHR
T5 sequence (P06855 whole entry): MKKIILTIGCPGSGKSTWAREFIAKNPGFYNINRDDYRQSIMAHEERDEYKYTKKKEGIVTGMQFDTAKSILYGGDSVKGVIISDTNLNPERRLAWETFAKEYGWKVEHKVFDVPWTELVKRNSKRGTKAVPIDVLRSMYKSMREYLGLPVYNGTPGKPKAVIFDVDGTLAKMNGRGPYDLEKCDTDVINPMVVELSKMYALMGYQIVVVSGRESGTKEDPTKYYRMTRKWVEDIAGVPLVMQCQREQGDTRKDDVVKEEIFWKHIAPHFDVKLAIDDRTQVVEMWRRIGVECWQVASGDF
T7 sequence (Q9Y253 1-511 limits assumed): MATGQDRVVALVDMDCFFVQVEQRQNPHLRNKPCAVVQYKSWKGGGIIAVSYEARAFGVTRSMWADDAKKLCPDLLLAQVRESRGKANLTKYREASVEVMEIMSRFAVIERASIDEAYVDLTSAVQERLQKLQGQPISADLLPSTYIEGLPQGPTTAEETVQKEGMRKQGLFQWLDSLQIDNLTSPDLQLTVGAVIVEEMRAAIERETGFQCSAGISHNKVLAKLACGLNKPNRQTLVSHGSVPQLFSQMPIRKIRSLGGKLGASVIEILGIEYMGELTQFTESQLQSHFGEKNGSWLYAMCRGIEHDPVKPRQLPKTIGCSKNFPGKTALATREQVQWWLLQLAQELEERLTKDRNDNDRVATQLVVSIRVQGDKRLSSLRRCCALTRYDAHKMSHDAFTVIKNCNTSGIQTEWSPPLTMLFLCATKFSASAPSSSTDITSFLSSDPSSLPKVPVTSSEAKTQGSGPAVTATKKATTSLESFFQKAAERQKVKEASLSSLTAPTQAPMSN
T6 sequence (Q07864 whole entry): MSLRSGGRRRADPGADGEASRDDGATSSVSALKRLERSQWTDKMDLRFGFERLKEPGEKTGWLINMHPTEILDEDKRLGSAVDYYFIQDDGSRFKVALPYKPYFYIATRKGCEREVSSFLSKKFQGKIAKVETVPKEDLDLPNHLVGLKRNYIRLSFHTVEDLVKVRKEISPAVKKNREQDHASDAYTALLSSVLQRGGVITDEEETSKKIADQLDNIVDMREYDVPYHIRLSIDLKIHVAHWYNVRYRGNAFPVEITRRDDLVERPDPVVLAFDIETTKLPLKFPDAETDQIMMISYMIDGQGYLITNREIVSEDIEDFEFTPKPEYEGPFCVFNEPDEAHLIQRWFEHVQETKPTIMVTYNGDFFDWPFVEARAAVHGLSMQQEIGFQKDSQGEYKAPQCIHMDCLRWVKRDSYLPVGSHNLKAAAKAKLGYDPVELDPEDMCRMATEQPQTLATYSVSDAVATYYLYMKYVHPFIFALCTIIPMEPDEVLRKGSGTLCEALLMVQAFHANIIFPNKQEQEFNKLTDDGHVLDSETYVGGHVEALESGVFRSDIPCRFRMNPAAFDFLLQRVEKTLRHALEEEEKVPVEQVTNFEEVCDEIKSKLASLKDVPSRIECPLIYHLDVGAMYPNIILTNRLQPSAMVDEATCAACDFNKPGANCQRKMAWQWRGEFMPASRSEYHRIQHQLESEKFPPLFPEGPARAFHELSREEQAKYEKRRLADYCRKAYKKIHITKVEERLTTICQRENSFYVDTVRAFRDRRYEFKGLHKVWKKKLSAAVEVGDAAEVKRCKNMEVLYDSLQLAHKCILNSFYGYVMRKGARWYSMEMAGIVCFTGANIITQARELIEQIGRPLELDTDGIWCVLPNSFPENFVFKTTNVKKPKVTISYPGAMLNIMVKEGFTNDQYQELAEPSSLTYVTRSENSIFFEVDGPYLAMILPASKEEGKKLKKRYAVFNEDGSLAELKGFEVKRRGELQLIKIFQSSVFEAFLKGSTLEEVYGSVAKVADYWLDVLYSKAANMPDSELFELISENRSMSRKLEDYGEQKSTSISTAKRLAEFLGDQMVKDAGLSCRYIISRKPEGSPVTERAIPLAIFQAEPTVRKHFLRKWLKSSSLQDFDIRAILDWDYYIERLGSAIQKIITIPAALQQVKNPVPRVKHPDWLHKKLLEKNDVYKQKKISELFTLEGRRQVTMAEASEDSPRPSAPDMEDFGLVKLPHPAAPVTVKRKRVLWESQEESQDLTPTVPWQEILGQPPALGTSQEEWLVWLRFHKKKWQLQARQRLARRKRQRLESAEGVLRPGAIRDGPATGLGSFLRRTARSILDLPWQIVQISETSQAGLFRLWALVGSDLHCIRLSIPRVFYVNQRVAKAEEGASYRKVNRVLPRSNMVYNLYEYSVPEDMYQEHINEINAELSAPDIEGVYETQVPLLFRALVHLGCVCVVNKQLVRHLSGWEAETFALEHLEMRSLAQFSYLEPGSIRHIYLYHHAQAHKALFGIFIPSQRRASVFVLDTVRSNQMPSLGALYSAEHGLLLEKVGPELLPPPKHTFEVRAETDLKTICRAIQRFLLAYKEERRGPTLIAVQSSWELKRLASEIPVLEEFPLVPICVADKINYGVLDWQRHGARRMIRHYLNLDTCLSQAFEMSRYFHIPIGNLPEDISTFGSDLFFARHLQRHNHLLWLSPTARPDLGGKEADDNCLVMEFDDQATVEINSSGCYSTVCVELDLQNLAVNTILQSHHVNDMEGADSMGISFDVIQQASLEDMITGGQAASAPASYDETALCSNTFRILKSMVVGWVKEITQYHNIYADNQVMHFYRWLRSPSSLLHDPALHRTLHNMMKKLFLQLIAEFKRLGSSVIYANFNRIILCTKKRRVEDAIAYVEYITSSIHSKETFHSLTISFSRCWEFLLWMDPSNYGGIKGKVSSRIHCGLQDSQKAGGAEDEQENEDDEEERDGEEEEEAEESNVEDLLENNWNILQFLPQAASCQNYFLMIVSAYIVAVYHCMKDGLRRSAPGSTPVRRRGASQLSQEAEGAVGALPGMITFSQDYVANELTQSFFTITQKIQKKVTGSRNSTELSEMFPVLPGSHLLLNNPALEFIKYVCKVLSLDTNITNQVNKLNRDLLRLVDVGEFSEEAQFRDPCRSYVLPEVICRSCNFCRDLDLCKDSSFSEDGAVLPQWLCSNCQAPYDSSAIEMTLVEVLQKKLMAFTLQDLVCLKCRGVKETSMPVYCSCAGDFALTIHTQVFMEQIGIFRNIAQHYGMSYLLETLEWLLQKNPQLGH
T3 sequence (P04415 whole entry): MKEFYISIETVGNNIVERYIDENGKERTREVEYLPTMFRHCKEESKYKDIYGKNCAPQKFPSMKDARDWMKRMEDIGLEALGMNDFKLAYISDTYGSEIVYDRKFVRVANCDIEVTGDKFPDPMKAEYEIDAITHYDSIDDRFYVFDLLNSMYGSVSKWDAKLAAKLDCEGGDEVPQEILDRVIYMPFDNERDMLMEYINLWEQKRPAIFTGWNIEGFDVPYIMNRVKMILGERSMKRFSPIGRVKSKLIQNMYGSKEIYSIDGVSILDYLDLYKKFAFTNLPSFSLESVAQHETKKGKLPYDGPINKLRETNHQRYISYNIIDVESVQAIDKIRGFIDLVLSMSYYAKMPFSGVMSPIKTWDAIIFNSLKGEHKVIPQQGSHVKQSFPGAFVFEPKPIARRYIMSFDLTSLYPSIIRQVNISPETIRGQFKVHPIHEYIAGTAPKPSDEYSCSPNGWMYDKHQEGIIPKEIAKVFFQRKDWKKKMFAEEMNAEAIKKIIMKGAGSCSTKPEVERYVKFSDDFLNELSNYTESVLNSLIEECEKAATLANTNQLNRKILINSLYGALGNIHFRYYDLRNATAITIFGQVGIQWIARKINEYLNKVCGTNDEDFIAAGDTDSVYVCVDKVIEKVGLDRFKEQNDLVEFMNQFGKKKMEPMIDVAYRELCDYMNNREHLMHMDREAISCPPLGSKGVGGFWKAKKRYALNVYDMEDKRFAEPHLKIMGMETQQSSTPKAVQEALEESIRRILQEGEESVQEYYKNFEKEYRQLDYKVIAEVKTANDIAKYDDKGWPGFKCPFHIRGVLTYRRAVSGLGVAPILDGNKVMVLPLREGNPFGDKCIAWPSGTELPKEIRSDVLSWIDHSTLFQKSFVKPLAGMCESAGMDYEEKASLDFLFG

Row | Inhibitory effect on human pol γ activity (Human DNA polymerase γ [4]; 50 μM of each compound, Figure 2) | SMILES | IC50 (Mouse DNA polymerase ι) | IC50 [1] | IC50 (T4 DNA polymerase) | IC50 [2] | IC50 (T4 polynucleotide kinase) | IC50 (Human DNA polymerase ɛ) | IC50 (Human DNA polymerase η) | IC50 [3] | IC50 (Human DNA polymerase γ [4]; A-family pol, poly(dA)/oligo(dT)18 and dTTP, read-out: IC50 Value of MK-2, Human DNA polymerase γ) | Inhibitor of human pol γ (Human DNA polymerase γ [5])
1 | – | CC(C)=CCC/C(C)=C/CC1=C(C)C(=O)c2ccccc2C1=O [MK-2] | 39 ± 2.3 µM | 36.7 ± 2.1 µM | > 200 µM | > 200 µM | > 200 µM | 28.2 ± 1.6 µM | 37.8 ± 2.2 µM | > 200 µM | 68.8 ± 3.4 µM | –
2 | had no effect on pol activity | CC(C)=CCC/C(C)=C/CC/C(C)=C/CC/C(C)=C/CC1=C(C)C(=O)c2ccccc2C1=O [MK-4, menaquinone 4, reference compound] | – | – | – | – | – | – | – | – | – | not

Source: PMC3083694, “Effects of Intermediates between Vitamins K2 and K3 on Mammalian DNA Polymerase Inhibition and Anti-Inflammatory Activity” (International Journal of Molecular Sciences, 2011)
